Data reported in US6814959B1, “UV radiation reflecting or absorbing agents, protecting against harmful UV radiation and reinforcing the natural skin barrier” (PharmaSol GmbH, priority 1999, dated 2004).

Test: UV absorption of diluted aqueous dispersions in UV spectrophotometer
Type: physicochemical
Settings: pure lipid solution in 96% ethanol or aqueous surfactant solution of the same concentration; 250-450 nm
Excerpt: The UV-blocking action of the agent was studied by measuring the UV absorption of the lipid particle dispersion in a UV spectrophotometer. The criterion was the reduced permeability of the lipid particle dispersion for UV radiation in the wavelength range up 280 nm (UV C), from 280 nm to 315 nm (=UV B) und from 315 nm to 400 nm (UV A). A further test to quantify the UV-blocking action was the determination of the reduced permeability of particle films using the standard test with Transpore™ tape (B. L. Diffey, P. M. Farr, Sunscreen protection against UVB, UVA and blue light; an in vivo and in vitro comparison, British Journal of Dermatology 124, 1991, 258-263). The particle films were produced by spreading the particle dispersion on Transpore™ tape and then air-drying. The films thus produced were then glued onto one side of a quartz cuvette and the UV permeability was determined by a photometer. The measurements took place against the corresponding references, e.g. O/W emulsion with the same lipid content as well as UV blockers incorporated into the oil phase of an emulsion.
A lipid particle dispersion consisting of 10% (m/m) cetyl palmitate, 1.2% (m/m) polyglycerol methylglucose distearate (Tego Care 450) and water was produced by high pressure homogenization. The mixture of lipid and emulsifier was melted at 75° C. and dispersed in the aqueous solution with an Ultra-Turrax T25 with dispersing tool S25, Janke und Kunkel (8000 rpm for 1 minute). The obtained pre-emulsion was then homogenized with an APV Gaulin LAB 40 homogenizer at 500 bar with 3 cycles at 75° C. Lipid particles resulted with a PCS diameter of 221 nm and a polydispersity index of 0.06. For comparison, an emulsion system was produced in which the 10% cetyl palmitate was replaced by 10% Miglyol 812. The production parameter was dispersion with the Ultra-Turrax (8000 rpm for 1 minute). The UV-blocking action was examined with a Uvikon 940 spectrophotometer, Kontron, in the wavelength range of 250-450 nm. […]

Absorption over the whole measurement range, did not absorb:
CCCCCCCCCCCCCCCCOC(=O)CCCCCCCCCCCCCCC [cetyl palmitate]
CCCCCCCCCCCCCCCCCCO [stearyl alcohol]
polyglycerol methylglucose distearate [Tego Care 450]
